Source: US9284567B2, “Method for gene introduction into hordeum plant using agrobacterium, and method for production of transformed plant of hordeum plant” (JAPAN TOBACCO INC., priority 2010, dated 2016)

How the values were obtained:
[1] = tested on: scutellum of barley immature embryo; test: Gene introduction efficiency (GUS expression index) after coculture with Agrobacterium; assay type: cell-based, barley (variety: Golden Promise)
Description: Immature embryos (size: 1.5 to 2.0 mm) of barley (variety: Golden Promise) from which embryonic axes were removed were aseptically collected and were immersed in 1 mL of sterilized water in a 2-mL microtube. In order to enhance the gene introduction efficiency, the tube containing the immature embryos was heated in a water bath at 43° C. for 5 minutes. An Agrobacterium strain EHA101 having a hygromycin resistance gene (pIG121Hm) (Non-Patent Literature 2) was suspended in an MG/L liquid medium (Non-Patent Literature 28) containing 100 μM acetosyringone and was shake-cultured (180 rpm) at 28° C. overnight (about 20 hours) to prepare an inoculation source. The bacterial concentration was adjusted to an O.D. of 1.0 (660 nm). The inoculation source was added to the thermal-treated immature embryos, and a reduced pressure treatment was performed with a vacuum pump at 500 mbar for 10 minutes. The immature embryos were washed once with a callus induction liquid medium, CIMT (Tingay et al., 1997: Non-Patent Literature 5) not containing any plant growth regulator (hereinafter, antiauxins, cytokinins, and auxins are collectively referred to as plant growth regulators). The immature embryos inoculated with Agrobacterium were transplanted onto a barley coculture medium (1/10 diluted MS inorganic salts and MS vitamins, 10 g/L of glucose, 0.5 g/L of MES, 5 μM AgNO3, and 5 μM CuSO4, pH 5.8; and 8 g/L of agarose) containing 100 μM acetosyringone in such a manner that the scutellum side faces upward. The test was performed using two plant growth regulators in four test groups of the coculture medium. That is, the four test groups are a hormone-free test group not containing any plant growth regulator, a test group of 5 μM TIBA (antiauxin), a test group of 1.13 μM dicamba (auxin), and a test group of 11.3 μM dicamba (auxin).
Immature embryos cultured at 25° C. in the dark for 24 hours were transplanted in a CIMT resting medium (Tingay et al., 1997: Non-Patent Literature 5) containing 0.5 mg/L of 2,4-D and 1.25 mg/L of CuSO4.5H2O. The resting medium was added with 250 mg/L of carbenicillin and 100 mg/T, of cefotaxime for Agrobacterium eradication. […] The expression of the GUS gene in the scutellum region of each immature embryo was evaluated in seven grades: 87.5 (expressed in 75% or more of scutellum), 62.5 (expressed in 50% or more and less than 75% of scutellum), 37.5 (expressed in 25% or more and less than 50% of scutellum), 17.5 (expressed in 10% or more and less than 25% of scutellum), […] (expressed in 1% or more and less than 10% of scutellum), 0.5 (expressed in exceeding 0% and less than 1% of scutellum), and 0 (no expression), and the average value thereof was expressed by a numerical value as the GUS expression index. […]

[2] = tested on: barley immature embryos; test: Callus formation from cocultured immature embryos; assay type: cell-based; settings: 0.25 mg/L (1.13 μM) in 1/10 diluted MS coculture medium, no centrifugation or pressurization
[3] = tested on: barley immature embryos; test: Transformation efficiency per immature embryo (hygromycin-resistant and GUS-positive regenerated plants); assay type: cell-based, barley (variety: Golden Promise)
Description: The preparation of materials and the inoculation with Agrobacterium were performed as in Example 1. The thermal treatment was also similarly performed.
Test group (1): Immature embryos inoculated with Agrobacterium were placed on the coculture medium described in Harwood et al. (2008: Non-Patent Literature 11) in such a manner that the scutellum faces downward. The coculture was performed at 25° C. in the dark for 3 days. In this test group, the centrifugation treatment was not performed.
Test group (2): Isolated immature embryos were transferred in a 2-mL microtube containing 1 mL of sterilized water and were centrifuged at 25° C. at 15000 rpm (20000×g) for 10 minutes. Subsequently, coculture was performed as in test group (1).
Test group (3): Immature embryos cocultured as in test group (1) were transferred in a 2-mL microtube containing 1 mL of sterilized water and were centrifuged at 25° C. at 15000 rpm (20000×g) for 10 minutes.
Test group (4): Immature embryos inoculated with Agrobacterium were transferred onto a barley coculture medium (1/10 diluted MS inorganic salts and MS vitamins, 10 g/L of glucose, 5 μM TIBA, 0.5 g/L of MES, 5 μM AgNO3, and 5 μM CuSO4, pH 5.8; and 8 g/L of agarose) containing 100 μM acetosyringone in such a manner that the scutellum side faces upward. The immature embryos were cultured at 25° C. in the dark for 24 hours. In this test group, the centrifugation treatment was not performed.
Test group (5): Isolated immature embryos were transferred in a 2-mL microtube containing 1 mL of sterilized water and were centrifuged at 25° C. at 15000 rpm (20000×g) for 10 minutes. Subsequently, coculture was performed as in test group (4).
Test group (6): Immature embryos cocultured as in test group (4) were transferred in a 2-mL microtube containing 1 mL of sterilized water and were centrifuged at 25° C. at 15000 rpm (20000×g) for 10 minutes.
That is, test groups (1), (2), and (3) used a coculture medium containing an auxin, dicamba, and undiluted MS inorganic salts, whereas test groups (4), (5), and (6) used a coculture medium containing an antiauxin, TIBA, and 1/10 diluted MS inorganic salts. Test group (7) used a hormone-free coculture medium containing 1/10 diluted MS inorganic salts.
The immature embryos prepared in test groups (1) to (7) were each transplanted in a CIMT resting medium (Tingay et al., 1997: Non-Patent Literature 5) containing 0.5 mg/L of 2,4-D, but not containing any selective agents. The resting medium was added with 250 mg/L of carbenicillin and 100 mg/L of cefotaxime for Agrobacterium eradication. The immature embryos were cultured at 25° C. in the dark for 7 days and were each divided into four sections. The divided sections were transplanted in a CIMT resting medium (Tingay et al., 1997: Non-Patent Literature 5) containing 0.2 mg/L of 2,4-D and 5 μM CuSO4, but not containing any selective agent. After the resting culture at 25° C. in the dark for 10 days, each four-divided immature embryo section was further divided into three to six subsections (i.e., one immature embryo was divided into 12 to 24 sections). The divided subsections were placed on a CIMT selection medium (Tingay et al., 1997: Non-Patent Literature 5) containing 0.1 mg/L of 2,4-D, 1.5 μM CuSO4, and 75 mg/L of hygromycin and were cultured at 25° C. in the dark for 10 days. Subsequently, subsections having cell clump supposed to be hygromycin resistance were subcultured in a selection medium having the same composition and were cultured at 25° C. in the dark for 10 days.
One hygromycin resistance callus for each divided section was placed on a transition (regeneration preculture) medium (Harwood et al. (2008: Non-Patent Literature 11)) not containing hygromycin and was cultured at 25° C. in the dark for about 2 weeks.

[4] = tested on: barley immature embryos; test: Hygromycin resistance callus formation after secondary selection; assay type: cell-based, barley (variety: Golden Promise); settings: Example 4, 5 μM TIBA in coculture medium
Description: The materials, the method of inoculation with Agrobacterium, the thermal treatment conditions, the coculture step, the centrifugation treatment conditions, and the resting step were the same as those in Example 3. The coculture medium contained an antiauxin: 5 μM TIBA. The scutellum was divided into four sections, and the resting step was further continued for 10 days. After the resting step, each divided scutellum section was further divided into 4 subsections (i.e., one immature embryo was divided into 16 sections). The divided subsections were transplanted in a CIMT selection medium (Tingay et al., 1997: Non-Patent Literature 5) containing 50 mg/L of hygromycin B and 1.25 mg/L of CuSO4.5H2O. The selection medium was added with 250 mg/L of carbenicillin for Agrobacterium eradication. Scutellum subsections were sorted by the original immature embryo and placed on the medium. After the culture at 25° C. in the dark for 2 weeks, only compact calli were selected by removing sponge-like calli containing a large amount of moisture. […] After the culture, hygromycin resistance compact calli propagated on the selection medium were counted. Note that even when a plurality of resistance calli were formed from scutellum subsections derived from a single immature embryo, only one of the resistance calli was counted as a hygromycin resistance callus for each immature embryo.

O=C(O)COc1ccc(Cl)cc1Cl [2,4-D, 2,4-dichlorophenoxyacetic acid]
gene introduction efficiency relative to hormone-free coculture medium ([1]; Example 5, FIG. 3, 1.13 μM in 1/10 diluted MS coculture medium): about one-sixth that of the hormone-free coculture medium | gene introduction efficiency (GUS expression index) ([1]; Example 5, FIG. 3, 11.3 μM in 1/10 diluted MS coculture medium): lowest | callus formation from cocultured immature embryos [2]: almost no callus was formed

O=C(O)c1cc(I)cc(I)c1I [TIBA, 2,3,5-triiodobenzoic acid]
gene introduction efficiency (GUS expression index) ([1]; Example 1, FIG. 1, 5 μM in 1/10 diluted MS coculture medium, coculture 24 hours, versus plant growth regulator-free group): notably enhanced | transformation efficiency per immature embryo ([3]; test group 4: 5 μM TIBA, 1/10 diluted MS coculture medium, 24 hours, no centrifugation treatment): no transformant was obtained at all | transformation efficiency per immature embryo ([3]; test group 5: 5 μM TIBA, 1/10 diluted MS coculture medium, centrifugation treatment before inoculation with Agrobacterium): 90% | transformation efficiency per immature embryo ([3]; test group 6: 5 μM TIBA, 1/10 diluted MS coculture medium, centrifugation treatment after coculture): 100% | frequency of hygromycin resistance callus formation from immature embryos ([4]; with centrifugation treatment after coculture, after secondary selection): 80% | frequency of hygromycin resistance callus formation from immature embryos ([4]; without centrifugation treatment): no callus survived in the selection medium

COc1c(Cl)ccc(Cl)c1C(=O)O [dicamba, 3,6-dichloro-2-methoxybenzoic acid]
gene introduction efficiency (GUS expression index) ([1]; Example 1, FIG. 1, 11.3 μM in 1/10 diluted MS coculture medium, coculture 24 hours): lowest | transformation efficiency per immature embryo ([3]; test group 1: conventional coculture medium with dicamba, undiluted MS, coculture 3 days, without centrifugation treatment): 30% | transformation efficiency per immature embryo ([3]; test group 2: conventional coculture medium with dicamba, undiluted MS, centrifugation treatment before inoculation): no transformant was obtained at all | transformation efficiency per immature embryo ([3]; test group 3: conventional coculture medium with dicamba, undiluted MS, centrifugation treatment after coculture): 20%
